Measured values published in patent publication US8148373B2, “Compounds” (AstraZeneca AB, priority 2008, dated 2012).
Counter-ions that a name gives are not always drawn.

Assays:
[1] = biological target: T1, Adrenergic β2 (H292 cells) (Homo sapiens, UniProt P07550); test: Assay for Adrenergic β2 Mediated cAMP Production (concentration response, AlphaScreen cAMP detection); assay type: cell-based; details: for EC50: cAMP production, 60 minutes at room temperature, 300 μM rolipram, read-out: β2 pEC50 (converted); for β2 Intrinsic activity: fraction relative to the maximum activity determined for formoterol
T1 construct: endogenous in cells; host or cells: H292 cells
T1 sequence (P07550 whole entry): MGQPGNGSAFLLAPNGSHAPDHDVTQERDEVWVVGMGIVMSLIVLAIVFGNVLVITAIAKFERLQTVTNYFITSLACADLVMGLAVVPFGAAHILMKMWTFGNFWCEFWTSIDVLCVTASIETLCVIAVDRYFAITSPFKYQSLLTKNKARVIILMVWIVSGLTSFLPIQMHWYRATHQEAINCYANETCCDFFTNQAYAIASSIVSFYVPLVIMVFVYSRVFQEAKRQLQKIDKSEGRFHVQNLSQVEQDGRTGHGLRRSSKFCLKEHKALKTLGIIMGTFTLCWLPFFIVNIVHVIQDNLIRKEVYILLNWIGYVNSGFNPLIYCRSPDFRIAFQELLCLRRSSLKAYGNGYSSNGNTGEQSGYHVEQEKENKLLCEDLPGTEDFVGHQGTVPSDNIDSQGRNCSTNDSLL
Procedure, shortened: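 Intrinsic activity is relative to the per-experiment formoterol maximum, with pEC50 from a four-parameter logistic fit of cAMP levels quantified by AlphaScreen against standards. Cells (H292) got 300 μM rolipram for 10 min, then compound for 60 min at room temperature, 1% DMSO final.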

[2] = biological target: T2, human muscarinic acetylcholine M3 receptor (M3-ACh) (Homo sapiens, UniProt P20309); test: Muscarinic 3 Receptor Binding Assay ([3H]NMS competition, SPA); details: [3H]NMS 0.1 nM, CHO-K1 cell membranes, 16 hours at room temperature; read-out: M3 pIC50 (converted)
T2 construct: expressed in transfected cells; host or cells: CHO-K1 (Chinese Hamster Ovary) cell membranes
T2 sequence (P20309 whole entry): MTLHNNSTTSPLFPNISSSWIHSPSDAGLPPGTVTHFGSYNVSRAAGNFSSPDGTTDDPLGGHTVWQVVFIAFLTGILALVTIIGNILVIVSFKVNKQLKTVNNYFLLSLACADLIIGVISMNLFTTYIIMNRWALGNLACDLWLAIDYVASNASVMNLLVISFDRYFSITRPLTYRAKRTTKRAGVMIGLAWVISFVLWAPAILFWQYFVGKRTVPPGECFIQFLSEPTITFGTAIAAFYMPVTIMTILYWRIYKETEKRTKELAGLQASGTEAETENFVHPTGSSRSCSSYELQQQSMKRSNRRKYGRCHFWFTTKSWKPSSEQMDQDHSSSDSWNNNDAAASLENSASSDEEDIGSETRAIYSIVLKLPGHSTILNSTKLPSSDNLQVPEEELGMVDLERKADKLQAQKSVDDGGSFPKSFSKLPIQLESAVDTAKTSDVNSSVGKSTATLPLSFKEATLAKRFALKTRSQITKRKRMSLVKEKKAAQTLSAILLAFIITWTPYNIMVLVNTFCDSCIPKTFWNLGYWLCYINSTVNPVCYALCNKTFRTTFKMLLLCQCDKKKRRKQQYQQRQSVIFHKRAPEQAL
Procedure, shortened: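 Competition SPA binding of 0.1 nM [3H]NMS (quarter Kd) to membranes from CHO-K1 cells expressing human M3, in 20 mM HEPES pH 7.4, 5 mM MgCl2, 1% DMSO. Incubated 16 h at room temperature; non-specific binding with 1 µM atropine. pIC50 from 50% reduction of specific binding.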

| Compound | EC50 [1] [nM] | β2 Intrinsic activity [1] | IC50 [2] [nM] |
| --- | --- | --- | --- |
| CC(C)c1cc(C(=O)N2CCOC3(CCN(Cc4cccc(CCNC[C@H](O)c5ccc(O)c6[nH]c(=O)ccc56)c4)CC3)C2)cs1 [Example 83, (R)-8-Hydroxy-5-(1-hydroxy-2-(3-((4-(5-isopropylthiophene-3-carbonyl)-1-oxa-4,9-diazaspiro[5.5]undecan-9-yl)methyl)phenethylamino)ethyl)quinolin-2(1H)-one ditrifluoroacetate] | 12.6 | 0.8 | 0.501 |
| O=C(c1ccc2sccc2c1)N1CCOC2(CCN(Cc3cccc(CCNC[C@H](O)c4ccc(O)c5[nH]c(=O)sc45)c3F)CC2)C1 [Example 68, (R)-7-(2-(3-((4-(Benzo[b]thiophene-5-carbonyl)-1-oxa-4,9-diazaspiro[5.5]undecan-9-yl)methyl)-2-fluorophenethylamino)-1-hydroxyethyl)-4-hydroxybenzo[d]thiazol-2(3H)-one ditrifluoroacetate] | 6.31 | 0.8 | 25.1 |
| CC(C)c1csc(C(=O)N2CCOC3(CCN(Cc4cccc(CCNC[C@H](O)c5ccc(O)c6[nH]c(=O)ccc56)c4)CC3)C2)n1 [Example 76, (R)-8-Hydroxy-5-(1-hydroxy-2-(3-((4-(4-isopropylthiazole-2-carbonyl)-1-oxa-4,9-diazaspiro[5.5]undecan-9-yl)methyl)phenethylamino)ethyl)quinolin-2(1H)-one ditrifluoroacetate] | 31.6 | 0.9 | 2 |
| CC(C)c1nc(C(=O)N2CCOC3(CCN(CCOc4ccc(CCNC[C@H](O)c5ccc(O)c6[nH]c(=O)ccc56)c(F)c4F)CC3)C2)cs1 [Example 77, (R)-5-(2-(2,3-Difluoro-4-(2-(4-(2-isopropylthiazole-4-carbonyl)-1-oxa-4,9-diazaspiro[5.5]undecan-9-yl)ethoxy)phenethylamino)-1-hydroxyethyl)-8-hydroxyquinolin-2(1H)-one ditrifluoroacetate] | 79.4 | 1 | 2.51 |
| Cc1nc(C(=O)N2CCOC3(CCN(Cc4cccc(CCNC[C@H](O)c5ccc(O)c6[nH]c(=O)sc56)c4)CC3)C2)cs1 [Example 6, (R)-4-Hydroxy-7-(1-hydroxy-2-(3-((4-(2-methylthiazole-4-carbonyl)-1-oxa-4,9-diazaspiro[5.5]undecan-9-yl)methyl)phenethylamino)ethyl)benzo[d]thiazol-2(3H)-one ditrifluoroacetate] | 3.98 | 0.9 | 0.316 |
| CC(C)c1nc(C(=O)N2CCOC3(CCN(CCCCCCCCCNC[C@H](O)c4ccc(O)c5[nH]c(=O)sc45)CC3)C2)cs1 [Example 109, (R)-4-Hydroxy-7-(1-hydroxy-2-(9-(4-(2-isopropylthiazole-4-carbonyl)-1-oxa-4,9-diazaspiro[5.5]undecan-9-yl)nonylamino)ethyl)benzo[d]thiazol-2(3H)-one formate] | 7.94 | 0.9 | 0.2 |
| Cc1csc(C(=O)N2CCOC3(CCN(Cc4cc(F)cc(CCNC[C@H](O)c5ccc(O)c6[nH]c(=O)sc56)c4)CC3)C2)c1 [Example 60, (R)-7-(2-(3-Fluoro-5-((4-(4-methylthiophene-2-carbonyl)-1-oxa-4,9-diazaspiro[5.5]undecan-9-yl)methyl)phenethylamino)-1-hydroxyethyl)-4-hydroxybenzo[d]thiazol-2(3H)-one ditrifluoroacetate] | 5.01 | 1 | 3.98 |
| Cc1nc(C(=O)N2CCOC3(CCN(Cc4cccc(CCNC[C@H](O)c5ccc(O)c6[nH]c(=O)ccc56)c4)CC3)C2)cs1 [Example 7, (R)-8-Hydroxy-5-(1-hydroxy-2-(3-((4-(2-methylthiazole-4-carbonyl)-1-oxa-4,9-diazaspiro[5.5]undecan-9-yl)methyl)phenethylamino)ethyl)quinolin-2(1H)-one ditrifluoroacetate] | 6.31 | 0.8 | 0.501 |
| CC(C)c1nc(C(=O)N2CCOC3(CCN(Cc4csc(CCNC[C@H](O)c5ccc(O)c6[nH]c(=O)sc56)c4)CC3)C2)cs1 [Example 278, (R)-4-hydroxy-7-(1-hydroxy-2-(2-(4-((4-(2-isopropylthiazole-4-carbonyl)-1-oxa-4,9-diazaspiro[5.5]undecan-9-yl)methyl)thiophen-2-yl)ethylamino)ethyl)benzo[d]thiazol-2(3H)-one ditrifluoroacetate] | 3.98 | 1.0 | 0.398 |
| CC(C)c1nc(C(=O)N2CCOC3(CCN(Cc4cc(CCNC[C@H](O)c5ccc(O)c6[nH]c(=O)sc56)ccc4F)CC3)C2)cs1 [Example 40, (R)-7-(2-(4-Fluoro-3-((4-(2-isopropylthiazole-4-carbonyl)-1-oxa-4,9-diazaspiro[5.5]undecan-9-yl)methyl)phenethylamino)-1-hydroxyethyl)-4-hydroxybenzo[d]thiazol-2(3H)-one ditrifluoroacetate] | 12.6 | 1.1 | 0.398 |
| CCC(CC)c1nc(C(=O)N2CCOC3(CCN(Cc4cccc(CCNC[C@H](O)c5ccc(O)c6[nH]c(=O)sc56)c4F)CC3)C2)cs1 [Example 71, (R)-7-(2-(2-Fluoro-3-((4-(2-(pentan-3-yl)thiazole-4-carbonyl)-1-oxa-4,9-diazaspiro[5.5]undecan-9-yl)methyl)phenethylamino)-1-hydroxyethyl)-4-hydroxybenzo[d]thiazol-2(3H)-one ditrifluoroacetate] | 20 | 0.8 | 5.01 |
| Cc1nc(C(=O)N2CCOC3(CCN(Cc4cc(F)cc(CCNC[C@H](O)c5ccc(O)c6[nH]c(=O)ccc56)c4)CC3)C2)cs1 [Example 28, (R)-5-(2-(3-Fluoro-5-((4-(2-methylthiazole-4-carbonyl)-1-oxa-4,9-diazaspiro[5.5]undecan-9-yl)methyl)phenethylamino)-1-hydroxyethyl)-8-hydroxyquinolin-2(1H)-one ditrifluoroacetate] | 10 | 1 | 2.51 |
| CC(C)c1nc(C(=O)N2CCOC3(CCN(Cc4ccc(F)c(CCNC[C@H](O)c5ccc(O)c6[nH]c(=O)sc56)c4)CC3)C2)cs1 [Example 47, (R)-7-(2-(2-Fluoro-5-((4-(2-isopropylthiazole-4-carbonyl)-1-oxa-4,9-diazaspiro[5.5]undecan-9-yl)methyl)phenethylamino)-1-hydroxyethyl)-4-hydroxybenzo[d]thiazol-2(3H)-one ditrifluoroacetate] | 15.8 | 0.9 | 0.501 |
| O=C(c1csc(C(F)(F)F)n1)N1CCOC2(CCN(Cc3cccc(CCNC[C@H](O)c4ccc(O)c5[nH]c(=O)ccc45)c3)CC2)C1 [Example 25, (R)-8-Hydroxy-5-(1-hydroxy-2-(3-((4-(2-(trifluoromethyl)thiazole-4-carbonyl)-1-oxa-4,9-diazaspiro[5.5]undecan-9-yl)methyl)phenethylamino)ethyl)quinolin-2(1H)-one ditrifluoroacetate] | 15.8 | 0.8 | 1 |
| Cc1nc(C(=O)N2CCOC3(CCN(CCc4ccc(CNC[C@H](O)c5ccc(O)c6[nH]c(=O)sc56)s4)CC3)C2)cs1 [Example 21, (R)-4-Hydroxy-7-(1-hydroxy-2-((5-(2-(4-(2-methylthiazole-4-carbonyl)-1-oxa-4,9-diazaspiro[5.5]undecan-9-yl)ethyl)thiophen-2-yl)methylamino)ethyl)benzo[d]thiazol-2(3H)-one ditrifluoroacetate] | 200 | 0.5 | 1 |
| CC(C)c1ccc(C(=O)N2CCOC3(CCN(Cc4cccc(CCNC[C@H](O)c5ccc(O)c6[nH]c(=O)sc56)c4F)CC3)C2)s1 [Example 73, (R)-7-(2-(2-Fluoro-3-((4-(5-isopropylthiophene-2-carbonyl)-1-oxa-4,9-diazaspiro[5.5]undecan-9-yl)methyl)phenethylamino)-1-hydroxyethyl)-4-hydroxybenzo[d]thiazol-2(3H)-one ditrifluoroacetate] | 7.94 | 0.9 | 7.94 |
| CC(C)c1ncc(C(=O)N2CCOC3(CCN(CCCCCCCCCNC[C@H](O)c4ccc(O)c5[nH]c(=O)sc45)CC3)C2)s1 [Example 115, (R)-4-Hydroxy-7-(1-hydroxy-2-(9-(4-(2-isopropylthiazole-5-carbonyl)-1-oxa-4,9-diazaspiro[5.5]undecan-9-yl)nonylamino)ethyl)benzo[d]thiazol-2(3H)-one formate] | 6.31 | 0.8 | 7.94 |
| Cc1nc(C(=O)N2CCOC3(CCN(CCc4ccc(CCNC[C@H](O)c5ccc(O)c6[nH]c(=O)sc56)s4)CC3)C2)cs1 [Example 4, (R)-4-Hydroxy-7-(1-hydroxy-2-(2-(5-(2-(4-(2-methylthiazole-4-carbonyl)-1-oxa-4,9-diazaspiro[5.5]undecan-9-yl)ethyl)thiophen-2-yl)ethylamino)ethyl)benzo[d]thiazol-2(3H)-one ditrifluoroacetate] | 15.8 | 0.9 | 1.26 |
